Assay results as given in PMC11555231 (Nature Communications, 2024).
Values belong to the compound of their own block, whether it stands above or below them. Bridge positions count the residues as written; N and C are the ends. Square brackets hold non-standard residues; d marks the D form. Peptide text beside a SMILES is read from it.

How the values were obtained:
hPADI4-stable mES cells = test: High content microscopy of citrullinated histone H3 (H3Cit) in hPADI4-stable mES cells; assay type: cell-based, mouse; conditions: KSR/2i 3 h, Fig. S7B
Procedure: HaLo-GFP-mito HeLa cells were grown in DMEM (Gibco) supplemented with 10% foetal bovine serum (FBS), penicillin/streptomycin (100 µg/ml) and puromycin (1 µg/ml) at 37 °C, 5% CO2. HaLo-GFP-mito HeLa cell line[82] was profiled by short tandem repeat analysis (STR) and tested negative for mycoplasma by the Cell Services Technology Platform at the Francis Crick Institute. E14 –mouse embryonic stem cells (Cambridge Stem Cell Institute, UK) were cultured in plates coated with 1% gelatine in GMEM supplemented with 10% foetal calf serum (FCS) batch-tested for ES cell culture (Gibco), 0.1 mM non-essential amino acids, 2 mM L-glutamine, 1 mM sodium pyruvate, 0.1 mM β-mercaptoethanol and 50 ng/mL leukaemia inhibitory factor (LIF) (ESGRO, Millipore). For PADI4 activation, cells were cultured in GMEM containing 10% knockout serum replacement (KSR, Life Technologies), 1% FCS batch-tested for ES cell culture (Gibco), 0.1 mM non-essential amino acids, L-glutamine, 1 mM sodium pyruvate, 0.1 mM β-mercaptoethanol, 50 ng/mL LIF (ESGRO, Millipore), 1 μM PD0325901 (AxonMedChem) and 3 μM CHIR99021 (AxonMedChem). For the generation of E14 mES stably expressing human PADI4 (hPADI4-stable), human PADI4 cDNA was inserted into ES E14 cells using the piggyBac transposon system. The Gateway system was used to clone human PADI4 into the piggyBac vector using primers PADI4_AttB1_F and PADI4_AttB2_R (Table S4). pPB-CAG-CTRL (empty vector) or pPB-CAG-hPADI4 vectors […] were transfected with the piggyBac transposase (pPBase) expression vector, pCAGPBase […], by lipofection according to the manufacturer’s instructions (Lipofectamine 2000, Invitrogen). E14 cells constitutively expressing the hygromycin resistance gene and human PADI4 were selected and expanded in media containing […] hygromycin.
E14 cells were seeded onto 96-well PerkinElmer cell carrier ultra plates (Phenoplates) coated with 0.1% gelatine, at 25,000 cells per well and grown overnight at 37 °C, 5% CO2. Outer wells were excluded but medium was added to minimise any edge effects. […]

hPADI4 [1] = target: T1, hPADI4 (Homo sapiens, UniProt Q9UM07); test: COLDER assay, inhibition of PADI4 at 10 mM CaCl2 (substrate BAEE); assay type: biochemical; conditions: COLDER, 10 mM CaCl2, peptide 10–0.0003 µM
T1 construct: PADI4 (residues 1–663); Avi-Tag (unbiotinylated); made in house; host or cells: E. coli BL21(DE3) without BirA
T1 sequence (Q9UM07 whole entry, the tested form may be a part): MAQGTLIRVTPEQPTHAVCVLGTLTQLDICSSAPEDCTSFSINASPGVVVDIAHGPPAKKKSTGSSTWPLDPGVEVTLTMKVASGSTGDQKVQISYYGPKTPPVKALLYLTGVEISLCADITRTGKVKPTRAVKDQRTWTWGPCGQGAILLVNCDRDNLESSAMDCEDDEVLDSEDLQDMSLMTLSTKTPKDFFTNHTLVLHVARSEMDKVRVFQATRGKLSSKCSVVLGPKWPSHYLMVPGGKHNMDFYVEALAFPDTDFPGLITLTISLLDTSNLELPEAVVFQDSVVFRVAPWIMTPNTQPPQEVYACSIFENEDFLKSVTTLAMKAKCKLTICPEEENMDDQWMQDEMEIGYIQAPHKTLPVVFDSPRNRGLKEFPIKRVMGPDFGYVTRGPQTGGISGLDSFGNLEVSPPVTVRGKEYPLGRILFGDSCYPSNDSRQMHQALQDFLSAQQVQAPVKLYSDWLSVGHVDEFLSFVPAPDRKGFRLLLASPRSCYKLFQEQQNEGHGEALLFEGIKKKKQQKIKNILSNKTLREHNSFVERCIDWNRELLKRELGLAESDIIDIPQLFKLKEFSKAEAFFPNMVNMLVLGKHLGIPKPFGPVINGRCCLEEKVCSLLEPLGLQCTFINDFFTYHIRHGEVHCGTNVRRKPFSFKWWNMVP
Procedure: (§1) PADI4 activity was assessed using the COLDER assay[43] that measures the formation of urea-containing compounds (e.g. citrulline). The reaction was carried out in a 96-well plate with a final volume of 50 µl. His-PADI4 (50 nM) was incubated with different concentrations of peptides (100 µM to 0.3 nM) in the presence of CaCl2 (from 10 mM to 0.001 mM as specified) for 10 min. The reaction was started by the addition of 10 mM N^α-Benzoyl-L-arginine ethyl ester hydrochloride (BAEE, Merck). After 30 min, the reaction was quenched with EDTA (50 mM final concentration). For colour development, 200 µl of COLDER solution, consisting of 1 volume of solution A (80 mM diacetyl monoxime/2,3-butanedione monoxime (Merck) and 2 mM thiosemicarbazide (Acros Organics)) and 3 volumes of solution B (3 M H3PO4, 6 M H2SO4 and 2 mM NH4Fe(SO4)2) were added to each well and the mixture was heated at 95 °C for 15 min. After cooling to RT, absorbance at 540 nm was measured, and citrulline concentration was determined using a standard curve of citrulline standards. All studies were performed within the linear range of PADI4 activity, and data analysis was performed using Prism GraphPad (Dotmatics). Data are presented as the average ± standard error of the mean from at least two independent replicates.

hPADI4 [2] = target: T1, hPADI4; test: COLDER assay, activation of PADI4 (calcium titration at fixed peptide, or peptide titration at 0.1 mM CaCl2); assay type: biochemical; conditions: 30 µM peptide
Procedure: as §1

HaLo-GFP-mito HeLa cells = test: Chloroalkane penetration assay (CAPA); assay type: in vitro ADME; conditions: for CP50: 4 h in Opti-MEM, 37 °C, chase HaLo-Tag TMR ligand 5 µM 15 min, mean ± SEM of three independent experiments; for CP50 at 4 °C relative to 37 °C: peer review response
Procedure: Following the addition of chloroacetyl-NHS to the N-terminal amino group, Cys(mmt) was selectively deprotected using 1% TFA, 5% triisopropylsilane in DCM (30 min, RT). Peptides were then cyclised on resin using 2% diisopropylethylamine in DMF overnight. Following cyclisation, Lys(ivDde) was deprotected using 2% hydrazine in DMF. The resin was then washed (3 x DCM, 3 x DMF) before on-resin coupling of chloroalkane carboxylic acid was performed on the lysine side chain using Hexafluorophosphate Azabenzotriazole Tetramethyl Uronium / diisopropylethylamine in DMF for 2 h. Global deprotection and purification were then carried out as described above. Chloroalkane carboxylate was synthesised as previously described.
CAPA assays were performed following the protocol published in ref. [51]. In brief, 40,000 HaLo- GFP-mito HeLa cells were seeded in a 96-well plate. Twenty-four hours later, cells were treated with different concentrations of chloroalkane-tagged peptides (100 µM to 200 nM for PADI4_3 and PADI4_3i and 50 µM to 100 nM for PADI4_11 and PADI4_11i) for 4 h in Opti-MEM. Media containing peptides was then removed, and cells were incubated with Opti-MEM (Gibco) for 15 min. After that time, the wash was removed, and cells were chased with HaLo-Tag TMR ligand (5 µM, Promega) in Opti-MEM for 15 min. The ligand was then removed, and cells were incubated with Opti-MEM for 30 min. Cells were then trypsinised, resuspended in phosphate-buffered saline (PBS) with 0.5% FBS and analysed using a benchtop flow cytometer (MACSQuant® VYB Flow cytometer Milteny Biotec). For each well, 10000 GFP positive single cells were analysed (gating workflow shown in Supplementary Fig. 18), and TMR mean fluorescence was normalised against a positive control (cells treated with HaLo-Tag TMR ligand but no peptide) and a negative control (non-treated cells). Analysis was performed using FlowJo (LCC) software and Prism GraphPad (Dotmatics). Data were presented as the average ± standard error of three independent replicates.

[3] = system: hPADI4 expressing mES cells; test: Cytotoxicity by live cell imaging with Incucyte Cytotox Green Dye
Procedure: Live cell imaging was performed using an Incucyte® imaging system (Sartorius), using Incucyte® Cytotox Green Dye as per the manufacturer’s instructions.
E. Assessment of cytotoxicity by live cell imaging with Incucyte® Cytotox
Green Dye, as a measure for cell death. hPADI4 expressing mES cells treated with 1 µM
Assessment of cytotoxicity by live cell imaging with Incucyte® Cytotox Green Dye, as a read-
vehicle (0.1%), and imaged for 48 h.

[4] = CAPA, chloroalkane-tagged peptide, 4 °C, flow cytometry, mean ± SEM of two (PADI4_3) or three (PADI4_11) independent experiments
[5] = CAPA, chloroalkane-tagged peptide, flow cytometry

Compound: NC(=O)[C@H](CCCN=C(N)CCl)NC(=O)c1ccccc1 [Cl-amidine, reference compound]
mean H3Cit intensity with increasing doses of inhibitor (hPADI4-stable mES cells): dose-response read-outs

PADI4 inhibition (in words) (hPADI4 [1]): No PADI4 inhibition was observed
change in K50(Ca2+) (in words) (hPADI4 [2]): little change
K50(Ca2+) of PADI4 in presence of peptide (hPADI4 [2]; Fig. 4A, COLDER, CaCl2 10–0.003 mM, mean ± SEM of three independent replicates): 0.359 ± 0.026 mM
Compound: CC[C@H](C)[C@@H]1NC(=O)[C@H](CCCNC(=N)N)NC(=O)[C@H](Cc2ccc(O)cc2)NC(=O)[C@H](Cc2ccccc2)NC(=O)[C@@H](Cc2ccc(O)cc2)NC(=O)CSC[C@@H](C(=O)NCC(N)=O)NC(=O)[C@H](CCC(N)=O)NC(=O)[C@H](Cc2ccc(O)cc2)NC(=O)[C@H](CC(N)=O)NC(=O)[C@@H]2CCCN2C(=O)[C@H](Cc2ccc(O)cc2)NC(=O)[C@H](Cc2c[nH]c3ccccc23)NC(=O)[C@H](Cc2ccccc2)NC(=O)CNC1=O [PADI4_1] ({CH2CO}-[dY]FYRIGFWYPNYQCG-NH2; thioether N-14)

Compound: N=C(N)NCCC[C@@H]1NC(=O)[C@H](Cc2ccc(O)cc2)NC(=O)[C@H](Cc2c[nH]cn2)NC(=O)[C@H](Cc2c[nH]cn2)NC(=O)[C@H](CC(=O)O)NC(=O)[C@H](CCCNC(=N)N)NC(=O)[C@@H](Cc2ccc(O)cc2)NC(=O)CSC[C@@H](C(=O)NCC(N)=O)NC(=O)[C@H](Cc2ccc(O)cc2)NC(=O)[C@H](CCCCN)NC(=O)[C@@H]2CCCN2C(=O)[C@H](Cc2c[nH]cn2)NC1=O [PADI4_3] ({CH2CO}-[dY]RDHHYRHPKYCG-NH2; thioether N-12)
CP50 at 4 °C (HaLo-GFP-mito HeLa cells; CAPA at 4C, run 220915, in µM (unit assumed)): 11.21
CP50 at 4 °C (HaLo-GFP-mito HeLa cells; CAPA at 4C, run 240501, in µM (unit assumed)): 8.235
CP50 at 4 °C (HaLo-GFP-mito HeLa cells; [4]): 9.7 ± 2.1 µM
CP50 (HaLo-GFP-mito HeLa cells; [5]): 1.4 ± 0.1 µM
CP50 at 4 °C relative to 37 °C (HaLo-GFP-mito HeLa cells; CAPA): 7 times
cytotoxicity ([3]; 1 µM peptide, imaged for 24h): No cytotoxicity was observed

Compound: CC(C)C[C@H](NC(=O)[C@H](CCC(N)=O)NC(=O)[C@H](CC(C)C)NC(=O)[C@@H](NC(=O)[C@H](CCC(N)=O)NC(=O)[C@H](CCCNC(=N)N)NC(=O)[C@H](Cc1ccc(O)cc1)NC(=O)[C@H](CCCNC(=N)N)NC(=O)[C@@H]1CSCC(=O)N[C@@H](Cc2ccc(O)cc2)C(=O)N[C@@H](CCC(=O)O)C(=O)N[C@@H](CO)C(=O)N1)C(C)C)C(N)=O [PADI4_11] ({CH2CO}-YESCRYRQVLQL-NH2; thioether N-4)
CP50 at 4 °C (HaLo-GFP-mito HeLa cells; [4]): 10.8 ± 4.7 µM
CP50 (HaLo-GFP-mito HeLa cells; [5]): 3.1 ± 1.2 µM
CP50 at 4 °C relative to 37 °C (HaLo-GFP-mito HeLa cells; CAPA): 4 times
cytotoxicity, live cell imaging of cell death ([3]; 25µM peptide, 48 h): not toxic to the cells
